Results reported in PubChem BioAssay AID1919017 (Molecular Pharmacology Branch, DTP, NCI, 2023).
pIC50: −log10 of the molar value.

Test system: SW1271 complex spheroids with HUVEC/MSC, growth, % test/control
Experiment: Anticancer human tumor SW1271 cell line growth inhibition [AhR];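 further: spheroids exposed to agents for 7 days before readout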
Settings: for pIC50: curve of first compound; for viability, T/C: stronger effect = lower value
Method in brief: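 Agents were dosed in half-log steps down from roughly clinical Cmax, or from 10 microM where Cmax was unknown, alone and with AhR antagonists. Read-out: percent test/control growth of tumor spheroids containing HUVEC and MSC stromal cells.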

[1] = second compound 0.1 µM, first compound 0.00949 µM
[2] = second compound 0.1 µM, first compound 0.03 µM
[3] = second compound 0.1 µM, first compound 0.0949 µM
[4] = second compound 0.1 µM, first compound 0.3 µM
[5] = second compound 0.316 µM, first compound 0.00949 µM
[6] = second compound 0.316 µM, first compound 0.03 µM
[7] = second compound 0.316 µM, first compound 0.0949 µM
[8] = second compound 0.316 µM, first compound 0.3 µM
[9] = second compound 1 µM, first compound 0.00949 µM
[10] = second compound 1 µM, first compound 0.03 µM
[11] = second compound 1 µM, first compound 0.0949 µM
[12] = second compound 1 µM, first compound 0.3 µM
[13] = second compound 3.16 µM, first compound 0.00949 µM
[14] = second compound 3.16 µM, first compound 0.03 µM
[15] = second compound 3.16 µM, first compound 0.0949 µM
[16] = second compound 3.16 µM, first compound 0.3 µM
[17] = second compound 10 µM, first compound 0.00949 µM
[18] = second compound 10 µM, first compound 0.03 µM
[19] = second compound 10 µM, first compound 0.0949 µM
[20] = second compound 10 µM, first compound 0.3 µM

`CC1COCCN1c1cc(C2(S(C)(=N)=O)CC2)nc(-c2ccnc3[nH]ccc23)n1` (stereo not given) + Cc1cncc(-c2nc(NCCc3c[nH]c4ccccc34)c3ncn(C(C)C)c3n2)c1 was tested, and the pIC50 (second compound 0.1 µM) was < 5.00, the pIC50 (second compound 0.316 µM) was < 5.00 and the pIC50 (second compound 1 µM) was < 5.00. The pIC50 (second compound 3.16 µM) was < 5.00, the pIC50 (second compound 10 µM) was > 7.50 and the viability, T/C (second compound 0.1 µM, first compound 0.0316 µM) was 87.4%. The viability, T/C (second compound 0.1 µM, first compound 0.1 µM) was 103%, the viability, T/C (second compound 0.1 µM, first compound 0.316 µM) was 85.7% and the viability, T/C (second compound 0.1 µM, first compound 1 µM) was 88.1%. The viability, T/C (second compound 0.1 µM, first compound 3.16 µM) was 85.3%, the viability, T/C (second compound 0.1 µM, first compound 10 µM) was 67.8% and the viability, T/C (second compound 0.316 µM, first compound 0.0316 µM) was 85.5%. For the same molecule, the viability, T/C (second compound 0.316 µM, first compound 0.1 µM) was 103%, the viability, T/C (second compound 0.316 µM, first compound 0.316 µM) was 106% and the viability, T/C (second compound 0.316 µM, first compound 1 µM) was 103%. The viability, T/C (second compound 0.316 µM, first compound 3.16 µM) was 71.7%, the viability, T/C (second compound 0.316 µM, first compound 10 µM) was 52.6% and the viability, T/C (second compound 1 µM, first compound 0.0316 µM) was 83.7%. The viability, T/C (second compound 1 µM, first compound 0.1 µM) was 87.7%, the viability, T/C (second compound 1 µM, first compound 0.316 µM) was 88.7% and the viability, T/C (second compound 1 µM, first compound 1 µM) was 84.5%. The viability, T/C (second compound 1 µM, first compound 3.16 µM) was 90.2%, the viability, T/C (second compound 1 µM, first compound 10 µM) was 62.7% and the viability, T/C (second compound 3.16 µM, first compound 0.0316 µM) was 83%. For the same molecule, the viability, T/C (second compound 3.16 µM, first compound 0.1 µM) was 93%, the viability, T/C (second compound 3.16 µM, first compound 0.316 µM) was 93.6% and the viability, T/C (second compound 3.16 µM, first compound 1 µM) was 71.1%. It also gave a viability, T/C (second compound 3.16 µM, first compound 3.16 µM) of 69.4%, a viability, T/C (second compound 3.16 µM, first compound 10 µM) of 59.3% and a viability, T/C (second compound 10 µM, first compound 0.0316 µM) of 51.6%. The viability, T/C (second compound 10 µM, first compound 0.1 µM) was 46.9%, the viability, T/C (second compound 10 µM, first compound 0.316 µM) was 45.5% and the viability, T/C (second compound 10 µM, first compound 1 µM) was 40%. It also gave a viability, T/C (second compound 10 µM, first compound 3.16 µM) of 43.3% and a viability, T/C (second compound 10 µM, first compound 10 µM) of 28.9%.
`Nc1ncn(C2CC(O)C(CO)S2)c(=O)n1` (stereo not given) + Cc1cncc(-c2nc(NCCc3c[nH]c4ccccc34)c3ncn(C(C)C)c3n2)c1 was tested, and the pIC50 (second compound 0.1 µM) was < 6.52, the pIC50 (second compound 0.316 µM) was < 6.52 and the pIC50 (second compound 1 µM) was < 6.52. The pIC50 (second compound 3.16 µM) was < 6.52, the pIC50 (second compound 10 µM) was > 9.02 and the viability, T/C (second compound 0.1 µM, first compound 0.000949 µM) was 73.1%. For the same molecule, the viability, T/C (second compound 0.1 µM, first compound 0.003 µM) was 93.7%, the viability, T/C [1] was 97.1% and the viability, T/C [2] was 90.9%. It also gave a viability, T/C [3] of 99.6%, a viability, T/C [4] of 98.5% and a viability, T/C (second compound 0.316 µM, first compound 0.000949 µM) of 94.2%. It also gave a viability, T/C (second compound 0.316 µM, first compound 0.003 µM) of 84.2%, a viability, T/C [5] of 81.8% and a viability, T/C [6] of 84.8%. It also gave a viability, T/C [7] of 101%, a viability, T/C [8] of 90.9% and a viability, T/C (second compound 1 µM, first compound 0.000949 µM) of 93.8%. For the same molecule, the viability, T/C (second compound 1 µM, first compound 0.003 µM) was 104%, the viability, T/C [9] was 104% and the viability, T/C [10] was 98.7%. The viability, T/C [11] was 96.9%, the viability, T/C [12] was 90.5% and the viability, T/C (second compound 3.16 µM, first compound 0.000949 µM) was 94.1%. It also gave a viability, T/C (second compound 3.16 µM, first compound 0.003 µM) of 86.4%, a viability, T/C [13] of 86% and a viability, T/C [14] of 82.3%. The viability, T/C [15] was 74.2%, the viability, T/C [16] was 78.4% and the viability, T/C (second compound 10 µM, first compound 0.000949 µM) was 45.5%. For the same molecule, the viability, T/C (second compound 10 µM, first compound 0.003 µM) was 44.8%, the viability, T/C [17] was 45.6% and the viability, T/C [18] was 39.8%. It also gave a viability, T/C [19] of 49.3% and a viability, T/C [20] of 43.9%.
For `O=C(C=Cn1cnc(-c2cc(C(F)(F)F)cc(C(F)(F)F)c2)n1)NNc1cnccn1` + Cc1cncc(-c2nc(NCCc3c[nH]c4ccccc34)c3ncn(C(C)C)c3n2)c1, the pIC50 (second compound 0.1 µM) was 6.04, the pIC50 (second compound 0.316 µM) was 5.63 and the pIC50 (second compound 1 µM) was 5.61. The pIC50 (second compound 3.16 µM) was < 5.52, the pIC50 (second compound 10 µM) was > 8.02 and the viability, T/C [1] was 83.3%. The viability, T/C [2] was 103%, the viability, T/C [3] was 87.1% and the viability, T/C [4] was 82.4%. For the same molecule, the viability, T/C (second compound 0.1 µM, first compound 0.949 µM) was 48.6%, the viability, T/C (second compound 0.1 µM, first compound 3 µM) was 44.6% and the viability, T/C [5] was 88.2%. It also gave a viability, T/C [6] of 91.9%, a viability, T/C [7] of 88% and a viability, T/C [8] of 74.5%. For the same molecule, the viability, T/C (second compound 0.316 µM, first compound 0.949 µM) was 65.9%, the viability, T/C (second compound 0.316 µM, first compound 3 µM) was 45.6% and the viability, T/C [9] was 105%. The viability, T/C [10] was 96.6%, the viability, T/C [11] was 97.7% and the viability, T/C [12] was 72.2%. It also gave a viability, T/C (second compound 1 µM, first compound 0.949 µM) of 62.8%, a viability, T/C (second compound 1 µM, first compound 3 µM) of 47% and a viability, T/C [13] of 97.7%. It also gave a viability, T/C [14] of 88.2%, a viability, T/C [15] of 97.5% and a viability, T/C [16] of 87.7%. The viability, T/C (second compound 3.16 µM, first compound 0.949 µM) was 67.7%, the viability, T/C (second compound 3.16 µM, first compound 3 µM) was 53.2% and the viability, T/C [17] was 44.4%. The viability, T/C [18] was 48.4%, the viability, T/C [19] was 55% and the viability, T/C [20] was 59.3%. It also gave a viability, T/C (second compound 10 µM, first compound 0.949 µM) of 50.1% and a viability, T/C (second compound 10 µM, first compound 3 µM) of 47.7%.
